According to ChEMBL document CHEMBL4265876, “Natural Products with Heteroatom-Rich Ring Systems” (J Nat Prod, 2017):
Converted amounts (≈) assume the structure as drawn.

What was measured:
Cercospora sojina = test: Antifungal activity against Cercospora sojina assessed as inhibition zone at 100 ug/hole; format: functional
Fusarium oxysporum = test: Antifungal activity against Fusarium oxysporum assessed as inhibition zone at 100 ug/hole; format: functional
Aspergillus niger = test: Antifungal activity against Aspergillus niger assessed as inhibition zone at 100 ug/hole; format: functional
HeLa S3 = test: Cytotoxicity against human HeLaS3 cells; format: functional, cell-based
SF-268 = test: Cytotoxicity against human SF268 cells assessed as cell killing at 50 uM relative to control; format: functional
Micrococcus luteus [1] = test: Antibacterial activity against Micrococcus luteus assessed as inhibition zone at 20 ug; format: functional; conditions: read-out: IZ
L1210 = test: Cytotoxicity against mouse L1210 cells assessed as decrease in cell viability at 5 ug; format: functional
Pyricularia oryzae = test: Antimicrobial activity against Pyricularia orizae; format: functional
T-cell = test: Inhibition of ConA-induced cell proliferation of BALB/c mouse T-lymphocytes assessed as reduction in [3H]thymidine incorporation incubated for 48 hrs by beta scintillation counting method; format: functional
[2] = Antioxidant activity of the compound; format: functional
[3] = target: Sodium-dependent noradrenaline transporter (Homo sapiens) (UniProt P23975); test: Inhibition of norepinephrine transporter (unknown origin) at 10 uM
Sequence of Sodium-dependent noradrenaline transporter (Homo sapiens) (P23975 whole entry): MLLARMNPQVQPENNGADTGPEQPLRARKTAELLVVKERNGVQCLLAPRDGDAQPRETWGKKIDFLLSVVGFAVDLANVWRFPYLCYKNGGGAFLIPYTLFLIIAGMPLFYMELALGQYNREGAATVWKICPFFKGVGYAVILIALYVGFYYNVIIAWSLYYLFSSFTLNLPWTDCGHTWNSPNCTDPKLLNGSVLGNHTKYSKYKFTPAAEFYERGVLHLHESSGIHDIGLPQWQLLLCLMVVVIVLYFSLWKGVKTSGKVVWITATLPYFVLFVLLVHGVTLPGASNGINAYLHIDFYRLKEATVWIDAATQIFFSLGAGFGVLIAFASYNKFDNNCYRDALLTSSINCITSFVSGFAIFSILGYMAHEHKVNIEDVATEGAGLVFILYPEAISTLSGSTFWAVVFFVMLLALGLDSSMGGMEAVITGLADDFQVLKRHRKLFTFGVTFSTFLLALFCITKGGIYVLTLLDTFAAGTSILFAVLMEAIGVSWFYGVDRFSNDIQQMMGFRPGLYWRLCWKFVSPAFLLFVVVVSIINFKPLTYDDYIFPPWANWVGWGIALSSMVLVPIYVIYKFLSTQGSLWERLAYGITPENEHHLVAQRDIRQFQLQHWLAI

[4] = target: Mu-type opioid receptor (Homo sapiens) (UniProt P35372); test: Inhibition of mu opioid receptor (unknown origin) at 10 uM
Sequence of Mu-type opioid receptor (Homo sapiens) (P35372 whole entry): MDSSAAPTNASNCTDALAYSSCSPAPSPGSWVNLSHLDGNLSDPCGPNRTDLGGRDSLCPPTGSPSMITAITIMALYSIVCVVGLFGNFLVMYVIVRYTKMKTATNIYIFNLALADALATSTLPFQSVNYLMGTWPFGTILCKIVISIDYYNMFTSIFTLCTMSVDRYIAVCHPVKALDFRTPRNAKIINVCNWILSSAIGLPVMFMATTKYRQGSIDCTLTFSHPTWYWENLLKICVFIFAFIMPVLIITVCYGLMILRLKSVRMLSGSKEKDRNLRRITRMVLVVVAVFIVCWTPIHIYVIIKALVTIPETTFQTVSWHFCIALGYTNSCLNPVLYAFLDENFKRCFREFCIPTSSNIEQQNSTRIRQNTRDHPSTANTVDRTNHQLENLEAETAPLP

[5] = target: Sodium-dependent serotonin transporter (Homo sapiens) (UniProt P31645); test: Inhibition of serotonin transporter (unknown origin) at 10 uM
Sequence of Sodium-dependent serotonin transporter (Homo sapiens) (P31645 whole entry, looked up): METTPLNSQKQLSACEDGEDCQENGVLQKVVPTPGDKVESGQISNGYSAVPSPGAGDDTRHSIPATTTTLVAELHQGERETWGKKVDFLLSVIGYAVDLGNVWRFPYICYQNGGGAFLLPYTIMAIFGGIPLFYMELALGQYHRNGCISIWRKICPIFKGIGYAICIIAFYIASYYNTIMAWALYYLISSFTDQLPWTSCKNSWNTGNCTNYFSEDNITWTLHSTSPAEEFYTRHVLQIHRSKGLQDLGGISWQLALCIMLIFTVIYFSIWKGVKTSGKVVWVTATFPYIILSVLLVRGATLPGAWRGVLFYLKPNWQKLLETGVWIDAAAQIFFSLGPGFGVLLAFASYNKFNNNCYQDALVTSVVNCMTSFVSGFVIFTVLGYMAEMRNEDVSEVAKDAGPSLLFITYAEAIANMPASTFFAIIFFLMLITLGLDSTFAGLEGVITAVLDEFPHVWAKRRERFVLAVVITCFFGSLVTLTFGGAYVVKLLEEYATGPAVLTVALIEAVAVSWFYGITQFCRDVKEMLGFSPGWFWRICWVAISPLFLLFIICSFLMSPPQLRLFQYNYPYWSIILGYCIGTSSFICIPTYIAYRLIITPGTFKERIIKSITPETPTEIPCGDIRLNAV

[6] = target: Sodium-dependent dopamine transporter (Homo sapiens) (UniProt Q01959); test: Inhibition of dopamine transporter (unknown origin) at 10 uM
Sequence of Sodium-dependent dopamine transporter (Homo sapiens) (Q01959 whole entry): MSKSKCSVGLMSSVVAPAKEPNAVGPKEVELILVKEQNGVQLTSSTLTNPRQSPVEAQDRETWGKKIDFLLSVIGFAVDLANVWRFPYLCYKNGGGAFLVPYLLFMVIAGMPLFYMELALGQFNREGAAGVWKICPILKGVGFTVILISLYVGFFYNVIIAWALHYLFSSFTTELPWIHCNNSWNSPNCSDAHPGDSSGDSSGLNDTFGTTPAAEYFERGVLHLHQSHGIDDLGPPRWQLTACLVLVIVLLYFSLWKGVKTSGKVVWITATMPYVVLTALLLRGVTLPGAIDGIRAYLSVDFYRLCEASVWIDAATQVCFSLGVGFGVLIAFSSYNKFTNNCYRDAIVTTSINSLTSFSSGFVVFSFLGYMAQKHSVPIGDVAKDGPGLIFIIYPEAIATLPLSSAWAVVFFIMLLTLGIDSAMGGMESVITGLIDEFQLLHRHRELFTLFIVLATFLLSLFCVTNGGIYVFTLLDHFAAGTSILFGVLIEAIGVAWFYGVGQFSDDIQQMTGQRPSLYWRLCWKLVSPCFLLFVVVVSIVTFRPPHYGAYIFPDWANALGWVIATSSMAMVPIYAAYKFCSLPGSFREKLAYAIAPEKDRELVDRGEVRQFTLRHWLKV

Bacillus subtilis = test: Antibacterial activity against Bacillus subtilis ATCC 6051 after 24 hrs by serial dilution method; format: functional; conditions: ATCC 6051, 24 h
Escherichia coli [7] = test: Antibacterial activity against Escherichia coli ATCC 10536 after 24 hrs by serial dilution method; format: functional; conditions: ATCC 10536, 24 h
Staphylococcus aureus [8] = test: Antibacterial activity against Staphylococcus aureus ATCC 6538 after 24 hrs by serial dilution method; format: functional; conditions: ATCC 6538, 24 h
Pseudomonas aeruginosa = test: Antibacterial activity against Pseudomonas aeruginosa ATCC 10145 after 24 hrs by serial dilution method; format: functional; conditions: ATCC 10145, 24 h
Micrococcus luteus [9] = test: Antibacterial activity against Micrococcus luteus ATCC 9341 after 24 hrs by serial dilution method; format: functional; conditions: ATCC 9341, 24 h
Staphylococcus aureus [10] = test: Antibacterial activity against Staphylococcus aureus assessed as inhibition zone at 50 ug/disk; format: functional; conditions: read-out: IZ
Escherichia coli [11] = test: Antibacterial activity against Escherichia coli assessed as inhibition zone at 50 ug/disk; format: functional; conditions: read-out: IZ
[12] = Inhibition of protein kinase A (unknown origin); set-up: species or system Homo sapiens
Mucor hiemalis = test: Antifungal activity against Mucor hiemalis assessed as inhibition zone at 50 ug/disk; format: functional; conditions: read-out: IZ
Ruegeria atlantica = test: […] activity against Ruegeria atlantica assessed as inhibition zone at 50 ug/disk; format: functional; conditions: read-out: IZ
Saccharomyces cerevisiae = test: Antifungal activity against Saccharomyces cerevisiae assessed as inhibition zone at 50 ug/disk; format: functional; conditions: read-out: IZ
V79 = test: Cytotoxicity against chinese hamster V79 cells; format: cell-based; conditions: Cricetulus griseus
A549 = test: Cytotoxicity against human A549 cells; format: functional; conditions: read-out: ED50 (the source's name)
XF498 = test: Cytotoxicity against human XF498 cells; format: functional; conditions: read-out: ED50 (the source's name)
HCT-15 = test: Cytotoxicity against human HCT15 cells; format: functional; conditions: read-out: ED50 (the source's name)
SK-OV-3 = test: Cytotoxicity against human SKOV3 cells; format: functional; conditions: read-out: ED50 (the source's name)
SK-MEL-2 = test: Cytotoxicity against human SK-MEL-2 cells; format: functional; conditions: read-out: ED50 (the source's name)

With `CC(=O)O[C@H]1CC[C@]23C[C@]24CC[C@]2(C)[C@@H]([C@H](C)CCC5OOC(C)(C)O5)CC[C@@]2(C)[C@@H]4CC[C@H]3C1(C)C` (stereo partly drawn) the “inhibition zone (IZ)” value (Cercospora sojina) was 2 mm, the “inhibition zone (IZ)” value (Fusarium oxysporum) was 2 mm and the “inhibition zone (IZ)” value (Aspergillus niger) was 2 mm.
`CN1CN2CCCN3CCCC(=N1)C32` (stereo not drawn) showed an IC50 (HeLa S3) of 6.8 µg/mL (≈ 35 µM).
Work on `CC[C@H](C)C1=C(O)[N@@+]2([O-])Oc3ccc(-c4c(O)c(O)c(-c5ccc(OC(C)=O)cc5)c(OC(C)=O)c4OC(C)=O)cc3O[C@@]2([C@@H](C)CC)C(=O)N1O` yielded an Activity (SF-268) of 95%.
Compound `CN[C@@H]1CSCON2CCc3c([nH]c4ccc(O)c(Br)c34)[C@H]12` has a zone of inhibition at 20 µg/disc (Micrococcus luteus [1]) of 41 mm and an Activity (L1210) of 100%.
Work on `C1SCSSCS1` yielded an MIC (Pyricularia oryzae) of 50 µg/mL (≈ 294 µM).
For `COC1=C[C@@H](C)O[C@@H](O[C@H]2CC[C@@]3(C)C(=CC[C@@H]4[C@@H]3CC[C@@]3(C)[C@H]4CC[C@]3(O)[C@H](C)O[C@H]3C[C@H]4OCO[C@@]5(C[C@@H](OC)[C@H](O[C@H]6C[C@H](OC)[C@H](O[C@H]7C[C@@H](O)[C@H](O[C@H]8C[C@H](OC)[C@H](O[C@H]9C[C@@H](OC)[C@H](O)[C@@H](C)O9)[C@@H](C)O8)[C@@H](C)O7)[C@@H](C)O6)[C@@H](C)O5)O[C@@H]4[C@@H](C)O3)C2)C1=O`, the IC50 (T-cell) was 290 to 1970 nM.
In the case of `CO[C@H]1C[C@H](O[C@@H]2[C@@H](C)O[C@@]3(C[C@H]2OC)OCO[C@@H]2C[C@H](O[C@@H](C)[C@@]4(O)CC[C@H]5[C@@H]6CC=C7C[C@@H](O)CC[C@]7(C)[C@H]6CC[C@@]54C)O[C@H](C)[C@H]2O3)O[C@H](C)[C@H]1O[C@H]1C[C@@H](O)[C@H](O[C@H]2C[C@H](OC)[C@H](O[C@H]3C[C@@H](OC)[C@H](O)[C@@H](C)O3)[C@@H](C)O2)[C@@H](C)O1`, the IC50 (T-cell) is reported as 290 to 1970 nM.
With `CC[C@H](C)C1=C(O)[N@+]2([O-])Oc3ccc(-c4c(O)c(O)c(-c5ccc(OC(C)=O)cc5)c(OC(C)=O)c4OC(C)=O)cc3O[C@@]2([C@@H](C)CC)C(=O)N1O` the Activity (SF-268) was 96%.
Compound `CC[C@H](C)C1=C(O)[N@@+]2([O-])Oc3ccc(-c4c(O)c(O)c(-c5ccc(O)cc5)c(OC(C)=O)c4OC(C)=O)cc3O[C@@]2([C@@H](C)CC)C(=O)N1OC` has an IC50 [2] of 29100 nM.
In the case of `N=C(N)NCCCCCNc1noc(Cc2c[nH]c3ccccc23)n1`, the inhibition [3] is reported as 45%, the inhibition [4] is reported as 97% and the inhibition [5] is reported as 16%. It also gave an inhibition [6] of 96%.
Compound `Cc1cc(=O)n2nc(CC(=O)c3ccccc3)nc2[nH]1` [ESSRAMYCIN] has an MIC (Bacillus subtilis) of 1 to 8 µg/mL (≈ 3.73 to 29.8 µM), an MIC (Escherichia coli [7]) of 1 to 8 µg/mL (≈ 3.73 to 29.8 µM) and an MIC (Staphylococcus aureus [8]) of 1 to 8 µg/mL (≈ 3.73 to 29.8 µM). The MIC (Pseudomonas aeruginosa) was 1 to 8 µg/mL (≈ 3.73 to 29.8 µM) and the MIC (Micrococcus luteus [9]) was 1 to 8 µg/mL (≈ 3.73 to 29.8 µM).
Work on `COc1cc(CCN(C)C)c2sc3c(O)c(OC)cc(CCN(C)C)c3ssc2c1O` [LISSOCLIBADIN 4] yielded a zone of inhibition at 50 µg/disc (Staphylococcus aureus [10]) of 13.1 mm and a zone of inhibition at 50 µg/disc (Escherichia coli [11]) of 15.7 mm.
With `COc1c(OC)c2c(c(CCN)c1SC)SSS2` the IC50 [12] was > 25 µg/mL.
Work on `CC[C@H](C)C1=C(OC(C)=O)[N@+]2([O-])Oc3ccc(-c4c(O)c(O)c(-c5ccc(OC(C)=O)cc5)c(OC(C)=O)c4OC(C)=O)cc3O[C@@]2([C@@H](C)CC)C(=O)N1O` yielded an Activity (SF-268) of 93%.
With `NCCc1cc(O)c(O)c2c1SSSSS2` the IC50 [12] was > 25 µg/mL.
Compound `COc1c(OC)c2c(c(CCN(C)C)c1SC)SSS2` has a zone of inhibition at 50 µg/disc (Mucor hiemalis) of 10.3 to 32.4 mm, a zone of inhibition at 50 µg/disc (Ruegeria atlantica) of 10.3 to 32.4 mm and a zone of inhibition at 50 µg/disc (Saccharomyces cerevisiae) of 10.3 to 32.4 mm. The zone of inhibition at 50 µg/disc (Staphylococcus aureus [10]) was 10.3 to 32.4 mm, the IC50 (V79) was 190 nM and the zone of inhibition at 50 µg/disc (Escherichia coli [11]) was 10.3 to 32.4 mm. For the same compound, the IC50 [12] was > 25 µg/mL.
For `CC(C)CCCCC1=CN=CN2COC(=O)N12`, the EC50 (A549) was 0.62 µg/mL (≈ 2.61 µM), the EC50 (XF498) was 0.7 µg/mL (≈ 2.95 µM) and the EC50 (HCT-15) was 0.6 µg/mL (≈ 2.53 µM). It also gave an EC50 (SK-OV-3) of 0.36 µg/mL (≈ 1.52 µM) and an EC50 (SK-MEL-2) of 0.76 µg/mL (≈ 3.2 µM).
